Data on two compounds can be found in US20190119645A1, “GENERATION OF ADULT-LIKE HEART MUSCLE FROM HUMAN PLURIPOTENT STEM CELLS” (The Johns Hopkins University, priority 2015, published 2019).

One test concerns hiPSC-derived neurons. Nature of the test: Patch-clamp recording of spontaneous synaptic events in hiPSC-derived neurons. The test is classed as cell-based, human. To be noted: 10 μM; hiPSC-derived neurons in slices and in cultures; applied with Bic. The procedure:
(§1) Transverse brain slices of 350 μm thickness were prepared at 8 weeks after differentiated hiPSC cells injection using a vibratome (Leica VT1200S). Slices were incubated in artificial cerebrospinal fluid (ACSF) containing (in mM): NaCl 125, KCl 2.5, MgSO4 1, NaH2PO4 1.25, NaHCO3 26, CaCl2 2, and D-glucose 10. Slices were maintained in ACSF and continuously bubbled with 95% O2 and 5% CO2, first at 34° C. for 30 min, and then at room temperature. A single slice was transferred into a submerged recording chamber and perfused constantly with carbogen-equilibrated ACSF at a rate of 2 ml/min Injected human neurons expressing RFP were visualized under a 40× water immersion objective by fluorescence and DIC optics (Carl Zeiss, Germany). […] Resting membrane potential (RMP) was recorded in current clamp mode at 0 pA immediately after establishing whole-cell configuration. Series resistance (Rseries) and input resistance (Rin) were calculated from a 5 mV pulse and monitored throughout the experiment. […]
(§2) For voltageclamp experiments, the membrane potential was typically held at −70 mV. […] Data were acquired by PatchMaster software (HEKA Elektronik, Lambrech, Germany) Na^+ and K^+ currents and action potentials were analyzed using Clampfit 10.5 software (Molecular devices, Palo Alto, Calif., USA). Spontaneous synaptic events were analyzed using MiniAnalysis software (Synaptosoft, Decatur, Ga., USA). […]

In test [1] the test system is functional sodium and potassium channels in hiPSC-neurons. Nature of the test: Voltage-clamp recording of Na+ and K+ currents in hiPSC-derived neurons. It is filed as cell-based, human. The settings on record: depolarizing voltage steps; hiPSC-neurons after 8 weeks of maturation. On the procedure: as §1, §2

On to `N#Cc1cc2c(cc1[N+](=O)[O-])=NC(=O)C(=O)N=2` [CNQX, 6-Cyano-7-nitroquinoxaline-2,3-dione], for which the spontaneous synaptic events result in the test with hiPSC-derived neurons was “blocked”.

`CC[N+](CC)(CC)CC` [TEA]: the “voltage-dependent inward and outward currents, sensitivity” value in test [1] is reported as “selectively sensitive”.
